| flash point [°C] | SMILES |
| --- | --- |
| 59.00 | CCN(CC)CCCN [N',N'-diethylpropane-1,3-diamine] |
| 77.00 | C=C(C)C(=O)O [2-methylprop-2-enoic acid] |
| 38.00 | CCCCOC(=O)CC [butyl propanoate] |
| 99.00 | CC(O)CO (centres undefined) [propane-1,2-diol] |
| 49.00 | CC1(C)COCN1 [4,4-dimethyl-1,3-oxazolidine] |
| 27.00 | CC(=O)C(C)=O [butane-2,3-dione] |
| 151.00 | O=c1ccc2ccccc2o1 [chromen-2-one] |
| 62.00 | CC1CCCC(O)C1 (centres undefined) [3-methylcyclohexan-1-ol] |
| 69.00 | CC(=O)C1C(=O)C=C(C)OC1=O (centres undefined) [3-acetyl-6-methylpyran-2,4-dione] |
| 52.00 | COc1ccccc1 [anisole] |
| 95.00 | CS(C)=O [methylsulfinylmethane] |
| 20.00 | CCCC(C)C=O (centres undefined) [2-methylpentanal] |
| 57.00 | CC(=O)CCC=C(C)C [6-methylhept-5-en-2-one] |
| 101.00 | O=C1C=CCO1 [InChI=1S/C4H4O2/c5-4-2-1-3-6-4/h1-2H,3H2] |
| -26.00 | C=C(C)CCC [2-methylpent-1-ene] |
| 127.00 | O=[N+]([O-])c1cccc(Cl)c1 [1-chloro-3-nitrobenzene] |
| 111.00 | COC(C)COC(C)COC(C)CO (centres undefined) [2-[2-(2-methoxypropoxy)propoxy]propan-1-ol] |
| 101.00 | OCc1ccccc1 [phenylmethanol] |

| flash point [°C] | SMILES |
| --- | --- |
| 48.00 | CC(C)CCCCCOC(=O)COc1ccc(Cl)cc1Cl [6-methylheptyl 2-(2,4-dichlorophenoxy)acetate] |
| -12.00 | CCC1CO1 (centres undefined) [2-ethyloxirane] |
| 86.00 | CCC(OCCCOC)OC(C)=O (centres undefined) [1-(3-methoxypropoxy)propyl acetate] |
| 155.00 | CCN(CC)C(=O)c1cccc(C)c1 [N,N-diethyl-3-methylbenzamide] |
| 23.00 | CC/C=C/C#N [(E)-pent-2-enenitrile] |
| 79.00 | Cc1ccc2ccccc2n1 [2-methylquinoline] |
| 48.00 | CCCc1ccccc1 [propylbenzene] |
| -9.00 | C=COCC(C)C [1-ethenoxy-2-methylpropane] |
| 101.00 | CN1CCCC1c1cccnc1 (centres undefined) [3-(1-methylpyrrolidin-2-yl)pyridine] |
| 76.00 | Cc1ccc(N(C)C)cc1 [N,N,4-trimethylaniline] |
| 138.00 | S=C([S-])NCCNC(=S)[S-].S=C([S-])NCCNC(=S)[S-].[Mn+2].[Zn+2] |
| 31.00 | CC(C)CCC(C)(C)C [2,2,5-trimethylhexane] |
| 37.00 | CC(C)(C)CO [2,2-dimethylpropan-1-ol] |
| 112.00 | CCC(C)c1ccccc1O (centres undefined) [2-butan-2-ylphenol] |
| 38.00 | CCC1CCC(CCC(=O)[O-])C1.CCC1CCC(CCC(=O)[O-])CC1.[Cu+2] (centres undefined) |
| 96.00 | CC(=O)OCCOC(C)=O [2-acetyloxyethyl acetate] |
| 161.00 | COC(O)COCCOCCOCCO (centres undefined) [2-[2-[2-(2-hydroxyethoxy)ethoxy]ethoxy]-1-methoxyethanol] |
| 220.00 | O=C(O)CCCCCCCCC(=O)O [decanedioic acid] |

Further lines, the compound ahead of its results:

| SMILES | flash point [°C] |
| --- | --- |
| c1ccc2c(c1)Cc1ccccc1-2 [9H-fluorene] | 151.00 |
| ClC(Cl)(Cl)c1ccccc1 [trichloromethylbenzene] | 127.00 |
| CC1OC(C)OC(C)O1 (centres undefined) [2,4,6-trimethyl-1,3,5-trioxane] | 36.00 |
| NCCNCCNCCNCCN | 163.00 |
| Cl/C=C/CCl [(E)-1,3-dichloroprop-1-ene] | 35.00 |
| FC(F)(F)c1ccc(Cl)c(Cl)c1 [1,2-dichloro-4-(trifluoromethyl)benzene] | 65.00 |
| Clc1cccc2ccccc12 [1-chloronaphthalene] | 121.00 |
| COC(=O)C(C)Oc1ccc(Oc2ccc(Cl)cc2Cl)cc1 (centres undefined) [methyl 2-[4-(2,4-dichlorophenoxy)phenoxy]propanoate] | 38.00 |
| COC(=O)C(Cl)Cl [methyl 2,2-dichloroacetate] | 80.00 |
| c1cc2c3c(cccc3c1)CC2 [1,2-dihydroacenaphthylene] | 125.00 |
| Cc1ccc([N+](=O)[O-])c(C)c1 [2,4-dimethyl-1-nitrobenzene] | 107.00 |
| CCCCOP(=O)(CCCC)OCCCC [1-[butoxy(butyl)phosphoryl]oxybutane] | 154.00 |
| CC(=O)OO [ethaneperoxoic acid] | 41.00 |
| Nc1cc(Cl)ccc1O [2-amino-4-chlorophenol] | 170.00 |
| CCCCC(CC)COC(=O)CCCCC(=O)OCC(CC)CCCC (centres undefined) [bis(2-ethylhexyl) hexanedioate] | 196.00 |
| CCCCOCCOCC(C)O (centres undefined) [1-(2-butoxyethoxy)propan-2-ol] | 121.00 |
| Clc1ccc([Si](Cl)(Cl)Cl)cc1Cl [trichloro-(3,4-dichlorophenyl)silane] | 141.00 |

| SMILES | flash point [°C] |
| --- | --- |
| O=C(O)CCP(CCC(=O)O)CCC(=O)O [3-[bis(2-carboxyethyl)phosphanyl]propanoic acid] | 202.00 |
| Clc1ccc(-c2cccc(Cl)c2Cl)c(Cl)c1 [1,2-dichloro-3-(2,4-dichlorophenyl)benzene] | 141.00 |
| Cc1ccc(N)cc1C [3,4-dimethylaniline] | 98.00 |
| CC(O)CN(CC(C)O)CC(C)O (centres undefined) [1-[bis(2-hydroxypropyl)amino]propan-2-ol] | 160.00 |
| Cc1ccc(OP(=O)(Oc2ccc(C)cc2)Oc2ccc(C)cc2)cc1 [tris(4-methylphenyl) phosphate] | 210.00 |
| CCOC(=O)CCl [ethyl 2-chloroacetate] | 38.00 |
| CC(C)(c1ccc(OC[C@@H]2CO2)cc1)c1ccc(OC[C@@H]2CO2)cc1 | 79.00 |
| Clc1cc(Cl)cc(-c2cc(Cl)cc(Cl)c2)c1 [1,3-dichloro-5-(3,5-dichlorophenyl)benzene] | 141.00 |
| O=[N+]([O-])c1cc(Cl)ccc1Cl [1,4-dichloro-2-nitrobenzene] | 135.00 |
| COc1ccccc1[N+](=O)[O-] [1-methoxy-2-nitrobenzene] | 142.00 |
| ClCCOCCCl [1-chloro-2-(2-chloroethoxy)ethane] | 55.00 |
| CCCCCCCCCCCCCCCCS [hexadecane-1-thiol] | 102.00 |
| CCCCCC(=O)CC [octan-3-one] | 46.00 |
| OCCCl [2-chloroethanol] | 60.00 |
| C=CC=C [buta-1,3-diene] | -76.00 |
| O=[N+]([O-])c1ccccc1Cl [1-chloro-2-nitrobenzene] | 127.00 |
